From US20040122089A1, “Novel eicosanoid analgesics” (priority 2001, published 2004)
Read-outs that look alike come from different tables or passages of the source.

Columns and labels:
rat or human VR1 [1] = biological target: T1, rat or human VR1 (UniProt Q8NER1); details: Xenopus oocytes or HEK cells over-expressing rat or human VR1; read-out: VR1 EC50 (literature); cited from earlier work
T1 construct: other: Xenopus oocytes or HEK cells over-expressing rat or human VR1

human VR1 receptor = human VR1 receptor (Homo sapiens, UniProt Q8NER1); assay: Cytosolic calcium concentration assay in HEK-hVR1 cells (Example 3)
Chain of human VR1 receptor (Q8NER1 whole entry): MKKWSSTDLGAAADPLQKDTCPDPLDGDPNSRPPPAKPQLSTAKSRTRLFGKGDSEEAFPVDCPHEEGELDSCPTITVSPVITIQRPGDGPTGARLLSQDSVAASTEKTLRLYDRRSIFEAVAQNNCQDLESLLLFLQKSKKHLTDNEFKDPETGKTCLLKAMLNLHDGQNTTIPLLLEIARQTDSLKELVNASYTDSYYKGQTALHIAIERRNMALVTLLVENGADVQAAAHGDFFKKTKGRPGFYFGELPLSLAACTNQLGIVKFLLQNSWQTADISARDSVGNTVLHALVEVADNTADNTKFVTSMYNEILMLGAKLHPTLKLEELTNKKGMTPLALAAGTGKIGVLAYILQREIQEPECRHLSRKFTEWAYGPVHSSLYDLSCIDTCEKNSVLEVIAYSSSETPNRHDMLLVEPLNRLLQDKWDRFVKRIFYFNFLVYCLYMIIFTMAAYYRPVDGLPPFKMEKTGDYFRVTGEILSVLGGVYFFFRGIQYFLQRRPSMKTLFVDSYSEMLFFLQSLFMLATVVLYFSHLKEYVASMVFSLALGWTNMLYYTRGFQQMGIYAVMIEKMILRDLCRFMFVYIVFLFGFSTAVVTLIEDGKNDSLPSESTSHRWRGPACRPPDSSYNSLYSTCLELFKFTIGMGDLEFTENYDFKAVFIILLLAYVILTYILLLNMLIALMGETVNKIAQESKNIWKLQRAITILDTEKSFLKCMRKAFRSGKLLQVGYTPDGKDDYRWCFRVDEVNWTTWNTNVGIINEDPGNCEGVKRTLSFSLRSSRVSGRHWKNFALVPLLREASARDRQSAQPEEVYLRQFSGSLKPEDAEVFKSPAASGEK

mice [2] = assay: Mouse tetrad of behavioral tests, i.v. (Example 3); assay type: in vivo
Method: (§1) The analogs were administered to mice by tail-vein injection and evaluated for their ability to produce hypomotility, hypothermia, and antinociception. These pharmacological measures were determined in the same mouse at a time when maximal activity was present. […] A 10-sec maximum latency was used. Antinociception was expressed as % MPE as described below.
Data Analysis—For production of hypomotility and hypothermia, the data were expressed as a percentage of control activity and change in temperature, respectively. Antinociception was calculated according to the following equation.
% MPE=−((test latency-control latency)/(10s-control latency))×100
At least six animals were treated with each dose-response relationships could be determined for each analog. ED50 values were determined from least-squares unweighted linear regression analysis of log dose-response plots.
The ED50 (milligrams per kilogram, i.v.) does for inhibition of sector crossings (spontaneous activity) in an open field, antinociception (delay in seconds in the tail-flick response), decrease of rectal temperature in degrees Celsius, and induction of time spent in immobility on a ring are shown. Data are means (and ranges) of N>six animals.

CB1 receptors [3] = biological target: T2, CB1 receptors (Rattus norvegicus, UniProt P20272); assay: Agonist-stimulated [35S]GTPγS binding, rat hippocampal membranes
T2 sequence (P20272 whole entry): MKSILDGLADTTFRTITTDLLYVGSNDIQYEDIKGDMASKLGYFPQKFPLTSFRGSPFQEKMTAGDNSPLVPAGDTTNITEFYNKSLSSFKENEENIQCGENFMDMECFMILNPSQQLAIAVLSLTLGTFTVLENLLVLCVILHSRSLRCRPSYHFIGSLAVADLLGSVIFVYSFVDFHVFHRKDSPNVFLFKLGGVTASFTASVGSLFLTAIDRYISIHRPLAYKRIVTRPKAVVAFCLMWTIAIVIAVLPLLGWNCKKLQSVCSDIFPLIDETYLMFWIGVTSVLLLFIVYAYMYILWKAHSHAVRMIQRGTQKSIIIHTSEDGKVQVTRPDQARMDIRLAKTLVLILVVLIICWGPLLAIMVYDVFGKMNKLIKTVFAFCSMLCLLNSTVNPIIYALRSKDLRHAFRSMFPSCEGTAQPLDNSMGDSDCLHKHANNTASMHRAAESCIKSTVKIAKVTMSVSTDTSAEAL

mice [4] = assay: SR141716A pre-treatment before compounds in spontaneous activity and tail-flick tests in mice; assay type: in vivo, mouse; details: for effect of SR141716A pre-treatment on the compound's effects in the tetrad tests: SR141716A 3 mg/kg i.v., 10 min pre-treatment; for Spontaneous Activity (Beam Interuptions), SR14176a + comp / Tail-Flick Latency (% MPE), SR14176a + comp: SR14176A 3 mg/kg i.v. 10 min before
Method: as §1
Data are means ±S.E. of n≧six animals.

FAAH = biological target: T3, FAAH (Rattus norvegicus, UniProt P97612); assay: Fatty acid amide hydrolase assay, rat brain membranes; assay type: biochemical
T3 construct: membranes prepared from frozen brains of CD rats (Charles River, France); from tissue; host or cells: brain membranes of CD rats
T3 sequence (P97612 1-579): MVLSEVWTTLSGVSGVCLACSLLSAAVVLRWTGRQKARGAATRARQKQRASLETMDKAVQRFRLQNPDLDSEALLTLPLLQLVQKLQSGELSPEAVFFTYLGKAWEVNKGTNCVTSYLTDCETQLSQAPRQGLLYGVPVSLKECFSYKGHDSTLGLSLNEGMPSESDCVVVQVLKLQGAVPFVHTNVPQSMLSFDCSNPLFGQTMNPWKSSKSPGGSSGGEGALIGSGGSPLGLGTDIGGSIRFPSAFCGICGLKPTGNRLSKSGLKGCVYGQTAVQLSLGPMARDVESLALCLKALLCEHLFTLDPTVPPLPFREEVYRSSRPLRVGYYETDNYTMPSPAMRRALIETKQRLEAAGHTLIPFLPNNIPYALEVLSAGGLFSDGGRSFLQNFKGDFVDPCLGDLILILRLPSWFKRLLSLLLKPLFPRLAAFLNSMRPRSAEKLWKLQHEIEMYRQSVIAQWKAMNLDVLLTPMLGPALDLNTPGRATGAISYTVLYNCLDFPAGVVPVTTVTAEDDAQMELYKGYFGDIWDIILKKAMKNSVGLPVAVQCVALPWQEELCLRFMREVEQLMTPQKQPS
Method: Fatty acid amide hydrolase assay—The effect of compounds on the enzymatic hydrolysis of AEA was studied using membranes prepared from frozen brains of CD rats (Charles River, France), incubated with the test compounds and [^14C] AEA (9 μM) in 50 mM Tris-HCl, pH 9, for 30 min at 37° C. [^14C] Ethanolamine produced from [^14C] AEA hydrolysis was measured by scintillation counting of the aqueous phase after extraction of the incubation mixture with 2 volumes of CHCl3/CH3OH 2:1 (by vol.).
(§2) CP55940 from whole rat brain membranes.

AMT = assay type: cell-based, rat; details: [14C]AEA uptake, RBL-2H3 cells; read-out: AEA transport (IC50)
Method: AEA. Cells were incubated with [^14C] AEA for 5 min at 37° C., in the presence or absence of varying concentrations of the inhibitors. Residual [^14C] AEA in the incubation media after extraction with CHCl3/CH3OH 2:1 (by vol.), determined by scintillation counting of the lyophilized organic phase, was used as a measure of the AEA that was taken up by cells.
as §2

CB1 receptors [5] = biological target: T2, CB1 receptors; assay: CB1 receptor binding, [3H]CP55940, whole rat brain membranes (Example 3)
[6] = tested on: anandamide membrane transporter (AMT); details: RBL-2H3 cells; read-out: AMT IC50 (previously reported); cited from earlier work
rat or human VR1 [7] = details: cited from earlier work
mice [8] = details: cited from earlier work

In the case of `CCCCC/C=C\C/C=C\C/C=C\C/C=C\CCCC(=O)NCCO` [AEA, arachidonoylethanolamide], the EC50 (rat or human VR1 [1]) is given as 1 to 5 µM.
For `CCCCC/C=C\C/C=C\C/C=C\C/C=C\CCCC(=O)NCc1ccc(O)c(Cl)c1` [Compound O-2094], the EC50 (human VR1 receptor) was 0.01 µM, the Emax (human VR1 receptor; read-out: hVR1 efficacy (maximal effect, in parentheses)) was 63.5% and the ED50 (mice [2]; Mus musculus, iv, read-out: ED50 values, range over the four parameters of the mouse 'tetrad') was 0.49 to 3.77 mg/kg. For the same compound, the “Average ED50” value (mice [2]; i.v.) was 1.68 milligrams per kilogram, the “R.I. ED50” value (mice [2]; i.v., mean (range)) was 1.93 (1.56-2.39) milligrams per kilogram and the “Rectal temp. ED50” value (mice [2]; i.v., mean (range)) was 3.77 (1.21-11.76) milligrams per kilogram. For the same compound, the “Spontan. activity ED50” value (mice [2]; i.v., mean (range)) was 0.52 (0.38-0.71) milligrams per kilogram, the “Tail Flick ED50” value (mice [2]; i.v., mean (range)) was 0.49 (0.35-0.67) milligrams per kilogram and the EC50 (CB1 receptors [3]) was 0.131 µM. For the same compound, the “activity in the GTPγS binding assay” value (CB1 receptors [3]) was “low efficacy partial agonist”, the Emax (CB1 receptors [3]; read-out: GTPγS binding (Emax)) was 15% and the “effect of SR141716A pre-treatment on the compound's effects in the tetrad tests” value (mice [4]) was “not affected”. For the same compound, the “effect of SR141716A pre-treatment on the compound's effects in the tetrad tests” value (mice [4]; listed as 0-2094) was “No inhibitory effect”, the “Spontaneous Activity (Beam Interuptions), vehicle + compound” value (mice [4]; dose 1 mg/kg i.v.) was 83 ± 17 Beam Interuptions and the “Tail-Flick Latency (% MPE), vehicle + compound” value (mice [4]; dose 1 mg/kg i.v.) was 94 ± 5 % MPE. The “Spontaneous Activity (Beam Interuptions), SR14176a + comp” value (mice [4]; dose 1 mg/kg i.v.) was 116 ± 21 Beam Interuptions, the “Tail-Flick Latency (% MPE), SR14176a + comp” value (mice [4]; dose 1 mg/kg i.v.) was 100 % MPE and the “Spontaneous Activity (Beam Interuptions), vehicle + compound” value (mice [4]; dose 3 mg/kg i.v.) was 118 ± 16 Beam Interuptions. For the same compound, the “Tail-Flick Latency (% MPE), vehicle + compound” value (mice [4]; dose 3 mg/kg i.v.) was 100 % MPE, the “Spontaneous Activity (Beam Interuptions), SR14176a + comp” value (mice [4]; dose 3 mg/kg i.v.) was 52 ± 19 Beam Interuptions and the “Tail-Flick Latency (% MPE), SR14176a + comp” value (mice [4]; dose 3 mg/kg i.v.) was 96 ± 4 % MPE. The IC50 (FAAH) was 4.5 ± 0.7 µM, the IC50 (AMT) was 19 ± 2.1 µM and the Ki (CB1 receptors [5]; read-out: CB1 affinity Ki) was 0.275 ± 0.016 µM. For the same compound, the Ki (CB1 receptors [5]; read-out: CB1 affinity Ki, listed as 0-2094) was 0.274 ± 0.019 µM.
In the case of `CCCCC/C=C\C/C=C\C/C=C\C/C=C\CCCC(=O)N[C@H](C)CO` [Met-AEA, (R)-1′-Methyl-2′-hydroxy-ethyl-arachidonamide], the IC50 [6] is listed as 24.5 µM.
In the case of `CCCCC/C=C\C/C=C\C/C=C\C/C=C\CCCC(=O)NCc1ccc(O)c(OC)c1` [arvanil, N-[3-methoxy-4-hydroxy-benzyl]-arachidonamide], the “fold more potent at VR1 than CB1 receptors” value (rat or human VR1 [7]) is listed as “approximately 500 fold”, the IC50 [6] is listed as 3.6 µM and the “ED50 in the 'tetrad'” value (mice [8]) is listed as 0.085 mg/kg.
